Consider two compounds from publication PMC9929232, “On-demand male contraception via acute inhibition of soluble adenylyl cyclase” (Nature Communications, 2023).

The test system of one series is hERG. Conditions: cited from earlier work.
In series [1] the test system is tmACs from each subfamily. Conditions: cited from earlier work.
Series [2] is described as follows: Pharmacokinetic analysis of TDI-11861 in blood and tissues (LC-MS). In kind it is in vivo, mouse. Conditions: i.p.; including cauda epididymis, excluding testis. The protocol: At defined time points (15 min to 24 hours post-injection), 10 μl tail blood was progressively collected from the same males, mixed with 20 μl 15 mM EDTA, frozen in liquid nitrogen, and stored at −80 °C until analysis. Liver, kidney, eye, testis, caput and cauda epididymis, and seminal vesicle were collected, weighed, and homogenized in a threefold volume of 1:1 EtOH/H2O (v/v). […] Mice anesthetized with ketamine/xylazine were shaved and residual hair was removed with hair removal cream. A small incision was made with a scalpel, a hemostat was used to create a pump-size pocket under the skin, and the pump was inserted with the pump opening facing away from the incision. After the wound was closed, mice were treated with meloxicam for pain relief. For 7 or 42 days post-surgery, tail blood was collected at regular intervals.

A further series concerns over 310 kinases. The conditions noted are these: cited from earlier work.
The next series in a line: Solubility. In kind it is physicochemical. Conditions: unsuitable for chronic delivery to mice.
The subject of series [3] is ejaculated uterine mouse sperm. In words: Motility (CASA) of ejaculated uterine mouse sperm from injected males. In kind it is in vivo. On the set-up: hyperactivated motility (%): concentration or dose not given beside the values. How it is done:
(§1) For analysis of ejaculated uterine mouse sperm, the uteri of females with mating plugs were removed and placed into 1 ml TYH buffer.
For ex vivo assessment of mouse sperm from inhibitor-treated mice, sperm (25 µl) isolated at the indicated time points (15 min to 24 hours post-injection) diluted 1:5 in non-capacitating TYH buffer were loaded on a […] Leja slide (Hamilton Thorne) and placed on a microscope stage at 37 °C. Sperm movements of 10 fields of at least 200 sperm were examined using computer-assisted sperm analysis (CASA) via Hamilton–Thorne digital image analyzer (IVOS II, Hamilton Thorne Research, Beverly, MA) with the following parameters: 30 frames, frame rate: 60 Hz, cell size: 30–170 μm^2. Ejaculated uterine mouse sperm were recorded without additional dilution. Sperm were considered motile when presenting STR ≥80% and VAP ≥50 μm/s and hyperactivated when presenting VCL ≥270 μm/s, LIN < 50%, and ALH ≥7 μm. Track´s color code: motile (green), progressive (turquoise), hyperactivated (purple), slow (pink), static (red), not counted due to late entry (yellow).

Series [4] relates to ejaculated uterine mouse sperm. Nature of the series: cAMP in ejaculated uterine mouse sperm from injected males. The format is in vivo. The protocol:
as §1

The conditions of series [5]: at 20 µM; cited from earlier work.
For series [6] the following is noted: cited from earlier work.
Series [7] can be described thus: Pharmacokinetic analysis of TDI-11861 in blood and tissues (LC-MS). In kind it is in vivo, mouse. Conditions: oral, 1 and 3 hours; caput and cauda epididymis, seminal vesicles, not testis.
For series [8] the following is noted: cited from earlier work. The source holds these as a separate data set.
For another series, the system named is fertility of male mice. In words: Timed mouse mating (contraceptive efficacy). In kind it is in vivo. The conditions noted are these: for Contraceptive efficacy: vs vehicle. The protocol:
Single-housed naive (i.e., uninjected and virgin) male and female C57Bl/6 mice were acclimatized to a reverse light cycle (dark: 11 AM to 11 PM) for at least 2 weeks. […] Pregnancy and litter size was assessed in two ways. Either female were sacrificed 7 days following mating and implanted embryos counted, or females were permitted to go to term (21 days) and pups counted. A subset of the pups (both male and female) born from breakthrough pregnancies were permitted to mature and their fertility was assessed in standard matings.

The conditions of series [9]: cited from earlier work. The source holds these as a separate data set.
For series [10], the target named is T1, sAC-overexpressing rat 4-4 cells (Rattus norvegicus, UniProt Q9Z286).
T1 construct: expressed in transfected cells
T1 sequence (Q9Z286 1-469 limits assumed): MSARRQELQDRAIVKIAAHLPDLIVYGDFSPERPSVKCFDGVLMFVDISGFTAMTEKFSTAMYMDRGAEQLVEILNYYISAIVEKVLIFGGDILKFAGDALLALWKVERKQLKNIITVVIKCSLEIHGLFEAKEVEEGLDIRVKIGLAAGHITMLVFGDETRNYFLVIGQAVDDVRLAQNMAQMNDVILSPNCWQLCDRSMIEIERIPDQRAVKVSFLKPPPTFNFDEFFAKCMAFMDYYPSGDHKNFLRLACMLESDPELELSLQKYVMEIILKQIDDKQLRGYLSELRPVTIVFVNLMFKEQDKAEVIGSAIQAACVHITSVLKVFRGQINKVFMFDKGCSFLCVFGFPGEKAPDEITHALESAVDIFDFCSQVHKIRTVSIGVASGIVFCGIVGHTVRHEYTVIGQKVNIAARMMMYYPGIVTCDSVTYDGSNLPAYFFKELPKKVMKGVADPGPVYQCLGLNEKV
Nature of the series: Cellular cAMP accumulation in sAC-overexpressing 4-4 cells.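 On cAMP accumulated (%): percent of DMSO-treated control cAMP accumulation.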 The conditions noted are these: for cAMP accumulated (%): Fig. 1d normalized replicates; for cAMP accumulated: Fig. 1d replicates. In kind it is cell-based. On the set-up: cAMP accumulated: unit not given here. How it is done: sAC-overexpressing rat 4-4 cells were generated and functionally authenticated in our laboratory as previously described[33] and grown in DMEM + 10% FBS. Cells were maintained at 37 °C in 5% CO2 and were periodically checked for mycoplasma contamination.
To assess potency in a cellular system, we utilized 4-4 cells, which stably overexpress sAC[20],[33],[56]. Cellular levels of cAMP reflect a balance between its synthesis by adenylyl cyclases and its degradation by phosphodiesterases (PDEs). […] On the day prior to the assay, 5 × 10^6 cells/ml were seeded in 24-well plates in DMEM with 10% FBS. To measure sAC-dependent cAMP accumulation, cells were pretreated for 10 min with the respective inhibitor at the indicated concentrations or DMSO as control in 300 µl fresh media. Cyclic AMP accumulation was initiated by the addition of 500 µM IBMX, and after 5 min, the media was removed, and the cells were lysed with 250 µl 0.1 M HCl by shaking at 700 rpm for 10 min.
(cAMP levels reflect the balance of adenylyl cyclase and phosphodiesterase activity.)

The mark [11] stands for this setting: Fig. 4a replicates, ejaculated uterine sperm, 2 hours after 50 mg/kg i.p.
The mark [12] stands for this setting: 50 mg/kg i.p., mating period 0.5–2.5 hours, 2 hours.
[13] abbreviates: 50 mg/kg i.p., mating period 1–9 hours, 8 hours.

Several values for one entry are separate records, joined by “and”; a condition that tells them apart may be missing. Equal entries are not always repeated. Entries after “also recorded” stand apart in the source; their conditions may differ.

As to `Nc1nc(Cl)cc(-c2nn(C(F)F)cc2Cc2ccccc2OCCN2CCOC[C@@H]2CO)n1` [TDI-11861], the “activity in hERG electrophysiology studies” value in the series on hERG is given as “no significant activity”. For the same compound, in [1], the “activity against tmACs” value is “no activity”. Moreover, the entries for the “levels in tissues versus blood” value in series [2] and in series [7] were “correlated well with levels in blood” and “correlated well with its concentration in blood”, respectively. Besides, the “activity against over 310 kinases” value in the series with over 310 kinases is on record as “no significant activity”. The solubility result in the series “Solubility” is reported as “limited solubility”. The “motility of ejaculated sperm” value in [3] (50 mg/kg i.p., retrieved from uterus post-coitus) is listed as “immotile”. Moreover, the “progressive motility (%)” value in [3] (Fig. 4b, ejaculated sperm) is 4.7% and 5.3% and 8.9% and 7% and 4% and 4.75% and 3.2%. In series [3] (Fig. 4c, ejaculated sperm), the “hyperactivated motility (%)” value was 1.4% and 0.8% and 0.5% and 0.9% and 1.1%. The “bicarbonate-induced cAMP in ejaculated sperm” value in [4] (50 mg/kg i.p., retrieved from uterus) is “no bicarbonate-induced increase in cAMP”. In addition, in series [4] (setting [11]), the “cAMP, capacitating media” value was 0.692 pmol/10^6 sperm and 0.283 pmol/10^6 sperm and 0.5995 pmol/10^6 sperm and 0.72 pmol/10^6 sperm and 1.204 pmol/10^6 sperm and 0.492 pmol/10^6 sperm and 0.468 pmol/10^6 sperm and 0.24 pmol/10^6 sperm. Also, the “cAMP, non-capacitating media” value in series [4] (setting [11]) was 0.738 pmol/10^6 sperm and 1.2045 pmol/10^6 sperm and 0.9637 pmol/10^6 sperm and 0.847 pmol/10^6 sperm and 1.232 pmol/10^6 sperm and 0.679 pmol/10^6 sperm and 0.436 pmol/10^6 sperm and 0.514 pmol/10^6 sperm. In addition, the “cytotoxicity in cell viability assays” value in [5] is reported as “no significant activity”. In addition, the “activity in AMES assays” value in [6] was “no significant activity”. Also, the “activity in glutathione trapping assays” value in [8] was “no significant activity”. Further, the “mating behavior and mating frequency versus vehicle-injected males” value with fertility of male mice (50 mg/kg i.p.) was “same frequency as vehicle-injected males; also recorded: indistinguishable”. For the same compound, the Pregnancy rate with fertility of male mice (50 mg/kg i.p., mating period 0.5–2.5 hours post injection, mating time 2 hours) was 0%; with fertility of male mice (50 mg/kg i.p., mating period 0.5–[…], mating time 3 hours), 2.2%; with fertility of male mice (50 mg/kg i.p., mating period 1–9 hours, mating time 8 hours), 9.1%; in the series with fertility of male mice (50 mg/kg i.p., mating period 24–120 hours, mating time 96 hours (recovery)), 87%. Besides, the “Pregnancy pairings (pregnancies/pairings)” value is “zero females became pregnant in 52 pairings; also recorded: (0/52)” with fertility of male mice (setting [12]); 5 pregnancies out of 55 and (5/55) in the series with fertility of male mice (setting [13]); “(13/15)” in the series with fertility of male mice (50 mg/kg i.p., mating period 24–120 hours, 96 hours). In addition, the Contraceptive efficacy is recorded as 100% in the series on fertility of male mice (setting [12]); 91% in the series with fertility of male mice (50 mg/kg i.p., mating period 0.5–[…], 3 hours); 78% with fertility of male mice (setting [13]). For the same compound, the “health of F1 progeny from breakthrough pregnancies” value in the series on fertility of male mice (male and female F1) is “matured normally into fertile adults”. The “DEREK analysis for mutagenicity risks” value in series [9] is reported as “no significant activity”.
With `Cc1c(Cc2ccccc2)c(-c2cc(Cl)nc(N)n2)nn1C` [TDI-10229, reference compound], the “cAMP accumulated (%)” value is 3.303% and 10.629% and 8.51% and 2.193% and 5.92% and 3.107% and 22.11% and 16.4972% and 11.8328% and 5.524% and 4.206% and 1.889% and 2.077% in [10] (printed 0); 0% in series [10] (printed 0.477121); 40.0361% and 25.5301% and 16.8792% and 12.1343% and 19.6251% and 46.0455% and 19.6826% and 32.1271% and 49.6122% and 23.5829% and 24.3244% and 21.4812% and 12.9118% in [10] (printed -0.52288); 53.928% and 46.3142% and 43.7516% and 31.429% and 23.6328% and 79.7321% and 41.9299% and 71.9606% and 102.407% and 49.6166% and 29.8946% and 34.6849% and 30.4462% in [10] (printed -1); 63.9701% and 48.7859% and 51.356% and 54.7326% and 51.5128% and 120.896% and 78.187% and 107.566% and 161.903% and 63.1342% in [10] (printed -1.47712). For the same compound, the cAMP accumulated in series [10] (concentration (uM) -1.95424 [sic]) was 47.248 and 20.896 and 22.932 and 53.28 and 23.028 and 39.526 and 63.525 and 88.135 and 120.985 and 194.007 and 68.902 and 22.685; in [10] (concentration (uM) -2.43136 [sic]) it was 48.561 and 22.294 and 31.915 and 66.057 and 37.215 and 54.337 and 58.571 and 46.103 and 61.044 and 66.819 and 131.064 and 78.712 and 23.002; in [10] (concentration (uM) -2.90848 [sic]) it was 49.13 and 27.611 and 32.179 and 77.343 and 38.522 and 35.67 and 62.766 and 41.76 and 54.941 and 113.858 and 170.305 and 78.712 and 23.104.
